Test results: patent US9670487B2, “Cationic lipids for oligonucleotide delivery” (SIRNA THERAPEUTICS, INC., priority 2010, dated 2017)

How the values were obtained:
[1] = system: mRNA transcript for the firefly (Photinus pyralis) luciferase gene; assay: In vivo efficacy in luciferase mouse model (LNP/RDV with Luc siRNA); details: for inhibition at 0.3 mg/kg: Mus musculus, LNPs prepared from the compound with Luc siRNA, 0.3 mg Kg^-1, tail vein, imaged 48 hours post dose, relative to pre-dose luminescence, read-out: Average % Inhibition of Bioluminescence
Experimental: LNPs utilizing the compounds of the instant invention, in the nominal compositions described immediately above, were evaluated for in vivo efficacy and induction of inflammatory cytokines in a luciferase mouse model. The siRNA targets the mRNA transcript for the firefly (Photinus pyralis) luciferase gene (Accession # M15077). […] The in vivo luciferase model employs a transgenic mouse in which the firefly luciferase coding sequence is present in all cells. ROSA26-LoxP-Stop-LoxP-Luc (LSL-Luc) transgenic mice licensed from the Dana Farber Cancer Institute are induced to express the Luciferase gene by first removing the LSL sequence with a recombinant Ad-Cre virus (Vector Biolabs). Due to the organo-tropic nature of the virus, expression is limited to the liver when delivered via tail vein injection. Luciferase expression levels in liver are quantitated by measuring light output, using an IVIS imager (Xenogen) following administration of the luciferin substrate (Caliper Life Sciences). Pre-dose luminescence levels are measured prior to administration of the RDVs. Luciferin in PBS (15 mg/mL) is intraperitoneally (IP) injected in a volume of 150 uL. After a four minute incubation period mice are anesthetized with isoflurane and placed in the IVIS imager. The RDVs (containing siRNA) in PBS vehicle were tail vein injected n a volume of 0.2 mL. Final dose levels ranged from 0.3 to 3 mg/kg siRNA. PBS vehicle alone was dosed as a control. Three hours post dose, mice were bled retro-orbitally to obtain plasma for cytokine analysis. Mice were imaged 48 hours post dose using the method described above. Changes in luciferin light output directly correlate with luciferase mRNA levels and represent an indirect measure of luciferase siRNA activity. In vivo efficacy results are expressed as % inhibition of luminescence relative to pre-dose luminescence levels. Plasma cytokine levels were determined using the SearchLight multiplexed cytokine chemiluminescent array (Pierce/Thermo). Systemic administration of the luciferase siRNA RDVs decreased luciferase expression in a dose dependant manner. […]

[2] = system: mRNA transcript for the ApoB gene; assay: Rhesus monkey in vivo efficacy: serum LDL-C as surrogate marker of ApoB mRNA reduction; parameters: species or system Macaca mulatta (rhesus) monkeys; details: RDVs containing the compound and ApoB siRNA; 1 mg/kilogram siRNA intravenous; 2-12 days post administration; FIG. 6
Experimental: LNPs utilizing compound 34 in the nominal compositions described above, were evaluated for in vivo efficacy in male or female Macaca mulatta (rhesus) monkeys. The siRNA targets the mRNA transcript for the ApoB gene (Accession # XM 001097404). […] The RDVs (containing siRNA) in PBS vehicle were administered by intravenous injection in the saphenous vein at an injection rate of 20 mL/minute to a dose level of 1 mg/kilogram siRNA. The injection volumes were from 1.9 to 2.1 mL/kilogram and monkeys ranged in weight from 2.5 to 4.5 kilograms. The RDV or PBS control were administered to three monkeys. At multiple days post dose, 1 mL blood samples were drawn from the femoral artery for serum chemistry analysis. Monkeys were fasted overnight prior to blood draws. As a measure of efficacy, LDL-C was monitored as a downstream surrogate marker of ApoB mRNA reduction. At 2-12 days post systemic administration of RDVs containing compound 34, serum levels of LDL-C were reduced to less than 30% of pre-dose levels (FIG. 6).

[3] = Rat in vivo tolerability: serum ALT and AST after LNP dosing; details: Sprague-Dawley female rats; RDV with ApoB siRNA; tail vein; 24 hours after dosing; FIG. 4
Experimental: Six hours post dose, food is removed from the cages. Animal necropsy is performed 24 hours after LNP dosing. Rats are anesthetized under isoflurane for 5 minutes, then maintained under anesthesia by placing them in nose cones continuing the delivery of isoflurane until ex-sanguination is completed. Blood is collected from the vena cava using a 23 gauge butterfly venipuncture set and aliquoted to serum separator vacutainers for serum chemistry analysis. Punches of the excised caudate liver lobe are taken and placed in RNALater (Ambion) for mRNA analysis. Preserved liver tissue was homogenized and total RNA isolated using a Qiagen bead mill and the Qiagen miRNA-Easy RNA isolation kit following the manufacturer's instructions. Liver ApoB mRNA levels were determined by quantitative RT-PCR. Message was amplified from purified RNA utilizing a rat ApoB commercial probe set (Applied Biosystems Cat # RN01499054_ml). The PCR reaction was performed on an ABI 7500 instrument with a 96-well Fast Block. The ApoB mRNA level is normalized to the housekeeping PPIB (NM 011149) mRNA. PPIB mRNA levels were determined by RT-PCR using a commercial probe set (Applied Biosystems Cat. No. Mm00478295_ml). Results are expressed as a ratio of ApoB mRNA/PPIB mRNA. All mRNA data is expressed relative to the PBS control dose. […]

## CCCCC/C=C\C/C=C\CCCCCCCCOCC(CN(C)C)OCCCCCCCCO[C@H]1CC[C@@]2(C)C(=CC[C@H]3[C@@H]4CC[C@H]([C@H](C)CCCC(C)C)[C@@]4(C)CC[C@@H]32)C1 (some centres unmarked) [Compound 4, S-Octyl CLinDMA, reference compound]
[1]
  inhibition at 0.3 mg/kg: 55%

## CCCCC/C=C\C/C=C\CCCCCCCCOC(CN(C)C)OCCCCCCCC/C=C\C/C=C\CCCCC [Compound 2, N,N-dimethyl-2,2-bis[(9Z,12Z)-octadeca-9,12-dien-1-yloxy]ethanamine]
[1]
  inhibition at 0.3 mg/kg: 64%
[1]; mice dosed with RDVs containing the compound and Luc siRNA, Table 1
  Efficacy compared with RDV containing octyl-CLinDMA cationic lipid, Compound 4: Greater efficacy

## CCC/C=C\CCCCCCCOC(CN1CCCC1)OCCCCCCCC/C=C\C/C=C\CCCCC (centres unmarked) [Compound 34, 1-{2-[(8Z)-dodec-8-en-1-yloxy]-2-[(9Z,12Z)-octadeca-9,12-dien-1-yloxy]ethyl}pyrrolidine]
[2]
  Serum levels of LDL-C: less than 30 % of pre-dose levels

## CCCCC/C=C\C/C=C\CCCCCCCCOC(CN(C)C)OCCCCCCCC (centres unmarked) [Compound 31, N,N-dimethyl-2-[(9Z,12Z)-octadeca-9,12-dien-1-yloxy]-2-(octyloxy)ethanamine]
[3]
  Tolerability (serum ALT and AST) compared with RDV containing DLinKC2DMA cationic lipid 64: better tolerability
